Source: ChEMBL document CHEMBL4706688 (J Med Chem, 2021)

What was measured:
[1] = target: T1, Tyrosine-protein kinase JAK2 (Homo sapiens, UniProt O60674); details: HEK293F, dose 100.0 µM
[2] = cells; format: functional, tissue-based, UKE-1; details: Homo sapiens, UKE1, 72 h
[3] = target: T1, Tyrosine-protein kinase JAK2; assay: biochemical

T1 sequence (O60674 whole entry): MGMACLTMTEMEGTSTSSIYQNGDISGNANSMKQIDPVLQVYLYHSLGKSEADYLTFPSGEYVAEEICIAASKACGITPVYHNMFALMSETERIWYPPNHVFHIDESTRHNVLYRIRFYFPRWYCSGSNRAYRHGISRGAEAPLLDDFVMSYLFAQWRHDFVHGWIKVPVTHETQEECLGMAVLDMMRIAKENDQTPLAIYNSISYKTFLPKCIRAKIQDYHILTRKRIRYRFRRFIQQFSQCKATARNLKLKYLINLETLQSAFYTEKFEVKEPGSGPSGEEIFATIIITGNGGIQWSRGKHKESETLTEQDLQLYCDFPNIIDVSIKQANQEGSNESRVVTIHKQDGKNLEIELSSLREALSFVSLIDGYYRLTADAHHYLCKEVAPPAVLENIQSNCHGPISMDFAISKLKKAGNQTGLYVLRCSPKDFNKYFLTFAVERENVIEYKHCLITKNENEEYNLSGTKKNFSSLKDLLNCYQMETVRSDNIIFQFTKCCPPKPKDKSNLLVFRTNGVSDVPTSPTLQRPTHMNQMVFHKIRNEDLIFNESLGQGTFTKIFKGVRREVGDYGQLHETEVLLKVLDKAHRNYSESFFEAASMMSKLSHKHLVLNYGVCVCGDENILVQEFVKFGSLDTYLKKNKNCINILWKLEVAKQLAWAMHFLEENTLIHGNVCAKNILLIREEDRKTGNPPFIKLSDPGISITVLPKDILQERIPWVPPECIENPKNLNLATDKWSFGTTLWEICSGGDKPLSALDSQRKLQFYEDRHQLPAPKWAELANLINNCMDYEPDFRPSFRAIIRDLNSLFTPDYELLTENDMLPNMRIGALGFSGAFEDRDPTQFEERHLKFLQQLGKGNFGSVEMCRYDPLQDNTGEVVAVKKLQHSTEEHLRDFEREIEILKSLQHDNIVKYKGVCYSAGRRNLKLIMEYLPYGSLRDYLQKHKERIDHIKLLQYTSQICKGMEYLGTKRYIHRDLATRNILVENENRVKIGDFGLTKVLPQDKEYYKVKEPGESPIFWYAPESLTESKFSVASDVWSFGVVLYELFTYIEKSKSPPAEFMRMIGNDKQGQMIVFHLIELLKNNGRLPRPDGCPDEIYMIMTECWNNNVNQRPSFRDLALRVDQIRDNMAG

N#CCCn1cc(-c2nc(Nc3ccc(C4CCNCC4)cc3)nc3[nH]ccc23)cn1
ΔTm [1]: 7 °C | IC50 [2]: 4500 nM

N#CC[C@@H](C1CCCC1)n1cc(-c2nc(Nc3ccc(C4CCNCC4)cc3)nc3[nH]ccc23)cn1
ΔTm [1]: 8.3 °C

Cc1cnc(Nc2ccc(C3CCN(C)CC3)c(F)c2)nc1Nc1ccc2c(c1)N(S(=O)(=O)C(C)(C)C)CC2
ΔTm [1]: 4.3 °C | IC50 [2]: 210 nM

N#CC[C@H](C1CCCC1)n1cc(-c2nc(Nc3ccc(C4CCNCC4)cc3)nc3[nH]ccc23)cn1
ΔTm [1]: 12 °C

Cc1cnc(Nc2cc(F)c(C3CCN(C)CC3)c(F)c2)nc1Nc1ccc(F)c(NS(=O)(=O)C(C)(C)C)c1
ΔTm [1]: 3.2 °C | IC50 [2]: 150 nM

N#CCC(C1CCCC1)n1cc(-c2nc(Nc3ccc(C4CCNCC4)cc3)nc3[nH]ccc23)cn1 (racemic)
ΔTm [1]: 11.8 °C | IC50 [3]: < 0.05 nM

Cc1cnc(Nc2ccc(C3CCN(C)CC3)c(F)c2)nc1Nc1ccc(F)c(NS(=O)(=O)C(C)(C)C)c1
ΔTm [1]: 3.1 °C | IC50 [2]: 200 nM

Cc1cnc(Nc2ccc(OCCN3CCCC3)cc2)nc1Nc1cccc(S(=O)(=O)NC(C)(C)C)c1 [FEDRATINIB]
IC50 [2]: 660 nM

C=CCCn1cc(-c2nc(Nc3ccc(C4CCNCC4)cc3)nc3[nH]ccc23)cn1
ΔTm [1]: 6.4 °C | IC50 [2]: 620 nM
